Results as given in paper PMC11787888, “Development and confirmation of humanized plasma and epithelial lining fluid exposures of meropenem, cefiderocol and tobramycin in a standardized neutropenic murine pneumonia model” (Journal of Antimicrobial Chemotherapy, 2024).
Read-outs that look alike come from different tables or passages of the source.

What was measured:
[1] = design: method as in PMID 33371322, PMID 31724042, PMID 15107149; conditions: cited from earlier work
[2] = Plasma pharmacokinetics in the COMBINE murine neutropenic pneumonia model
Protocol: (§1) The model followed the COMBINE protocol with laboratory-specific detailed methods as follows.[6] Specific pathogen free CD-1, female mice 6–8 weeks old were acquired from Charles River Laboratories, Inc. (Raleigh, NC, USA). All animals were allowed to acclimatize for 72 h before any study procedures and were housed as groups of six at controlled room temperature in HEPA-filtered cages (Innovive, San Diego, CA, USA). Study rooms were maintained with diurnal cycles (12 h light/12 h dark) and food and water were provided ad libitum.
(§2) Neutropenia was achieved through 0.2 mL intraperitoneal (IP) administrations of cyclophosphamide 150 mg/kg on day minus 4 and an additional 100 mg/kg on day minus 1. A predictable degree of renal impairment was produced using 5 mg/kg of uranyl nitrate (Electron Microscopy Sciences, Hatfield, PA, USA) dissolved in sterile water administered as a 0.2 mL IP injection on day minus 3. […] Mice were anaesthetised using inhaled isoflurane, manually restrained upright and infected with 50 µL of bacterial suspension via the nares. Each bacterial inoculation suspension was used within 30 minutes of initial preparation.
(§3) The purpose of these studies was to establish HSRs in both plasma and ELF in the COMBINE murine neutropenic pneumonia model equivalent to clinical doses of meropenem (2 g every 8 h as 3 h infusion),[9] cefiderocol (2 g every 8 h as 3 h infusion)[10] and tobramycin (7 mg/kg as 0.5 h infusion)[11–13] based on unbound (free) exposures.
(§4) At predefined timepoints (shown in Figures 1–3), groups of six mice had blood sampled via retro-orbital bleeding (two time points, under anaesthesia with isoflurane 2%–3% v/v in 100% oxygen via inhalation) and/or cardiac puncture (one terminal time point). Proparacaine hydrochloride ophthalmic solution 0.5% was applied to the eye (1–2 drops) after blood sampling via retro-orbital bleeding. The volume of blood collected was 0.15 mL per sample via retro-orbital bleeding with subsequent fluid replacement using 0.2 mL normal saline given IP. Mice were euthanized by CO2 exposure before cardiac puncture. Following blood collection by cardiac puncture, but before cervical dislocation, bronchoalveolar lavage (BAL) fluid was collected from the mice at the same time points. A catheter was inserted into the trachea of the mice, and lungs were lavaged with four separate aliquots of 0.4 mL of normal saline. The BAL fluid was withdrawn immediately after injection and pooled for each animal. Pooled BAL was centrifuged for 10 min at 4°C and the supernatant was collected for analysis.
(§5) Drug concentrations in ELF were estimated by correcting the drug concentration in BAL fluid for the dilution with normal saline during lung lavage using the following formula: compoundELF = compoundBAL × (ureaplasma/ureaBAL), where compoundBAL is the measured drug concentration in the BAL fluid sample and ureaplasma and ureaBAL are the concentrations of urea in paired plasma and BAL fluid samples from each mouse, respectively. Owing to the lack of albumin in BAL fluid, total ELF concentrations were considered unbound.
(§6) Statistical outliers for each respective analyte were removed by the interquartile range method. Previously reported meropenem, cefiderocol and plazomicin (an aminoglycoside similar to tobramycin) plasma HSRs developed in alternative murine models were used as a baseline.[19],[20] Mathematical modifications were made to the baseline regimens as necessary to achieve translational exposures in the COMBINE model and repeat confirmatory PK studies were undertaken for both plasma and ELF.

[3] = design: method as in PMID 17283197, PMID 28848004; conditions: murine plasma, previously determined; cited from earlier work
[4] = ELF pharmacokinetics in the COMBINE murine neutropenic pneumonia model
Protocol: as §1, §2, §3, §4, §5, §6

[5] = human plasma, 2 g every 8 h as a 3 h infusion; cited from earlier work
[6] = mouse plasma, best-fit one-compartment model
[7] = mouse ELF, best-fit one-compartment model

CC(C)(O/N=C(\C(=O)N[C@@H]1C(=O)N2C(C(=O)[O-])=C(C[N+]3(CCNC(=O)c4ccc(O)c(O)c4Cl)CCCC3)CS[C@H]12)c1csc(N)n1)C(=O)O [Cefiderocol, cefiderocol]
Human plasma protein binding [1]: 58% | k el ([2]; female, CD-1, mouse, plasma, sc): 0.000206 s⁻¹ | K a (absorption rate constant into central compartment) [2, 6]: 21.71 h⁻¹ | V plasma (volume of distribution in central compartment) [2, 6]: 0.19 L/kg | %fT > MIC for a MIC of 1 µg/mL ([2]; mouse plasma, plasma HSR): 100% | %fT > MIC for a MIC of 2 µg/mL ([2]; mouse plasma, plasma HSR): 100% | %fT > MIC for a MIC of 4 µg/mL ([2]; mouse plasma, plasma HSR): 91% | %fT > MIC for a MIC of 8 µg/mL ([2]; mouse plasma, plasma HSR): 76% | %fT > MIC for a MIC of 16 µg/mL ([2]; mouse plasma, plasma HSR): 50% | %fT > MIC for a MIC of 32 µg/mL ([2]; mouse plasma, plasma HSR): 16% | %fT > MIC for a MIC of 64 µg/mL ([2]; mouse plasma, plasma HSR): 0% | %fT > MIC for a MIC of 128 µg/mL ([2]; mouse plasma, plasma HSR): 0% | Murine protein binding [3]: 31.6% | k el ([4]; female, CD-1, mouse, epithelial lining fluid (ELF), sc): 0.0002 s⁻¹ | %fT > MIC for a MIC of 1 µg/mL ([4]; mouse ELF, ELF HSR): 100% | %fT > MIC for a MIC of 2 µg/mL ([4]; mouse ELF, ELF HSR): 100% | %fT > MIC for a MIC of 4 µg/mL ([4]; mouse ELF, ELF HSR): 85% | %fT > MIC for a MIC of 8 µg/mL ([4]; mouse ELF, ELF HSR): 50% | %fT > MIC for a MIC of 16 µg/mL ([4]; mouse ELF, ELF HSR): 14% | %fT > MIC for a MIC of 32 µg/mL ([4]; mouse ELF, ELF HSR): 0% | %fT > MIC for a MIC of 64 µg/mL ([4]; mouse ELF, ELF HSR): 0% | %fT > MIC for a MIC of 128 µg/mL ([4]; mouse ELF, ELF HSR): 0% | K a-ELF (absorption rate constant into ELF compartment) [4, 7]: 1.94 h⁻¹ | V ELF (volume of distribution in ELF compartment) [4, 7]: 0.33 L/kg | %fT > MIC for a MIC of 1 µg/mL [5]: 100% | %fT > MIC for a MIC of 2 µg/mL [5]: 99% | %fT > MIC for a MIC of 4 µg/mL [5]: 98% | %fT > MIC for a MIC of 8 µg/mL [5]: 76% | %fT > MIC for a MIC of 16 µg/mL [5]: 48% | %fT > MIC for a MIC of 32 µg/mL [5]: 11% | %fT > MIC for a MIC of 64 µg/mL [5]: 0% | %fT > MIC for a MIC of 128 µg/mL [5]: 0%
